These are literature values, as cited in patent US20220211667A1, “COMPOSITION FOR THE INTRAPERITONEAL TREATMENT OF SECONDARY BACTERIAL PERITONITIS WITH REDUCTION OF COMPLICATIONS” (priority 2019, published 2022).

Data set [1] has as its system Pseudomonas aeruginosa. The note with it: maximum, for Pseudomonas aeruginosa; controlled clinical trials, oral or intravenous.
Assay in data set [2]: not given
This is another data set of the same source.

Data set [3] concerns strains of organisms from the susceptible genera.
For data set [4], the system named is polymorphonuclear leukocytes.
The test system of data set [5] is resistant bacterial strains. The settings on record: overall; controlled clinical trials, oral or intravenous.
For data set [6] the following is noted: intraperitoneal; third and last day of treatment.

As to `C[C@@H]1O[C@@H]1P(=O)(O)O` [Fosfomycin disodium], the solubility in water entry is “highly soluble in water” and the “pH of 5% solution” value is recorded as 9.0-10.5.
Turning to `C[C@@H]1O[C@@H]1P(=O)(O)O.NC(CO)(CO)CO` [Fosfomycin trometamol], the solubility in water entry is on record as “highly soluble in water” and the “pH of 5% solution” value is 3.5-5.5.
In the case of `C[C@@H]1O[C@@H]1P(=O)(O)O` [fosfomycin, [(2R,3S)-3-methyloxiran-2-yl]phosphonic acid], the “appearance of resistant bacterial strains” value in data set [1] was 15%. In addition, in data set [2] (evidence of allergy), the eosinophilia is reported as 0.2% and the transient rashes is 0.3 % of cases. Further, the “transiently raised liver enzymes” value in data set [2] (in vivo) was 0.3 % of cases. The “tested strains showing synergistic effect” value in data set [3] (early studies, various antibiotic combinations) is 70-100%. Also, in data set [3] (subsequent more extensive studies), the synergy rates is reported as 36-74%. Besides, in data set [4], the “concentration in polymorphonuclear leukocytes relative to extracellular fluid” value is recorded as “twice those of the extracellular fluid”. The “appearance of resistant bacterial strains” value in data set [5] is 3.0%.
With “GM-CSF: cytokine of the colony-stimulating factor family; mature human protein of 127 amino-acid residues, SEQ ID NO: 1”, the “patients with minor flu-like symptoms” value in data set [6] was 2 of 8.
